The source of these data is US20120128646A1, “METHODS AND COMPOSITIONS FOR THE TREATMENT OF AUTOIMMUNE DISEASE” (priority 2009, published 2012).

“Also recorded” adds a separate entry of the source. Where no end group is shown, it is not given here.

One assay has as its system soluble IA^g7. Nature of the assay: Peptide binding to IA^g7: competition with biotinylated HEL peptide. Also on record: species or system NOD mouse. As to conditions: competition with biotinylated pHEL 11 μM, pH 5.6, overnight. The source says:
FIG. 15B: A series of ChgA peptides tested for their ability to compete with a biotinylated HEL peptide for binding to soluble IA^g7. pS3-positive control peptide. IE^k moth cytochrome c-negative control peptide. N=2. Y axis: Percent of IA^g7-bound biotinylated HEL peptide as compared to IE^k. X axis: Log concentration of inhibitor peptide.
In order to confirm the unique binding register of the WE14 peptide, a series of peptides comprising N-terminal extensions and/or C-terminal deletions of WE14 were evaluated for their ability to stimulate the BDC-2.5 T cell clone (FIG. 6a) or to bind to IA^g7. See, FIG. 15A. […] See, FIG. 15B. Further, a pS3 mimotope was used as the positive control peptide and an irrelevant peptide from moth cytochrome c, pMCC, was the negative control peptide. The data were analyzed to determine the stimulatory or binding capacity of the peptides relative to WE14. See, FIG. 15C.
Soluble IA^g7 with covalently attached pHEL was treated with thrombin to cleave the linker attaching the peptide to the IA^g7 β chain. Kozono et al., “Production of soluble MHC class II proteins with covalently bound single peptides” Nature 369:151-154 (1994). Samples (0.5 μg) were incubated with a soluble biotinylated version of pHEL, Biotin-GGGMKRHGLDNYRGYSL (SEQ ID NO: 56) (11 μM), either alone or in the presence of various concentrations of potential competitors peptides, in 15 μL of pH 5.6 buffer overnight at room temperature. The sample was diluted to 100 μL of PBS in a well of a 96-well ELISA plate coated with an anti-IA^g7 monoclonal antibody, OX-6 (BD Pharmaceuticals). The captured IA^g7 was washed several times with PBS and the bound bio-pHEL detected with alkaline phosphatase coupled Extravadin (Sigma) and […].

The next assay relates to T cell clone BDC-2.5. Nature of the assay: IFNγ production by T cell clone in antigen assay (ELISA). In kind it is cell-based, NOD mouse. As to conditions: peptide or preparation as antigen. The source says:
The T cell clones are maintained in culture by periodic re-stimulation with irradiated NOD splenocytes and islet cells or β-membrane. To assay for antigen, resting responder T cells (i.e., for example, the cells at the end of the two-week restimulation period) are co-cultured for 24 hr with elicited peritoneal macrophages (PEC) as APC and either a test sample or control antigen. Control antigen will be in the form of islet cells or the whole-cell membrane fraction (i.e., for example, a β-membrane fraction). As described above, unlysed β-membrane is stored in aliquots at −80° C. for this purpose. Negative controls include responder cells alone and responders plus APC.
At the end of the culture period, supernatants are collected from the cultures and IFNγ production is measured by ELISA. Wells positive for IFNγ are indicative of T cells responding to antigen; the amount of cytokine produced is calculated from a standard curve and is directly proportional to the amount of antigen present.
Antigenicity of islet cells, cellular and biochemical fractions, peptides, or insect cells expressing IA^g7-peptide constructs, was assessed through responses of T cell clones or hybridomas made by fusing T cell clones to the TCR^− version of T cell lymphoma, BW5147. White et al., “Two better cell lines for making hybridomas expressing specific T cell receptors” J Immunol 143:1822-1825 (1989). T cell clone cultures typically contained 2×10^4 responder T cells, 2.5×10^4 NOD peritoneal exudate cells (PEC) as APC, and antigen (SEC/IEX fractions, peptides, islet cells); all assays were performed with β-Mem as a positive control. IFNγ was measured by ELISA of culture supernatants. For cultures with T cell hybridomas, antigen/MHC activation was assessed by IL-2 production measured by a bioassay using the HT-2 T cell line. Walker et al., “Antigenspecific. I region-restricted interactions in vitro between tumor cell lines and T cell hybridomas” J Immunol 128:2164-2169 (1982). Synthetic peptides were either produced in the Molecular Resource Center at National Jewish Health or obtained from CHI Scientific, Maynard, Mass.
(ELISA stands for enzyme-linked immunosorbent assay.)

Assay [1] concerns BDC-10.1 T cell hybridoma. Briefly: CD69 upregulation on T cell hybridoma co-cultured with insect cells infected with linked peptide I-A^g7 viruses. It is filed as cell-based, mouse. As to conditions: hybridomas 3 × 10^5/mL, 3 hrs co-culture with infected insect cells 1 × 10^5/mL. How it is done:
(§1) FIG. 13F: The p3 glycine of pS3 was mutated to other amino acids. The effect of the mutations on early activation of the three BDC hybridomas was assessed by CD69 induction. The results are shown as the percent of cells expressing CD69 relative to those activated with the unmutated pS3 peptide. […] The sequences of the pS3 and ChgA peptide are also shown, highlighting the amino acids at the p3 position.
(§2) A mutational analysis was performed of 3 L mimotope at positions 2 and 3 followed by their respective ability to stimulate BDC-2.5, BDC-10.1 and BDC-5.10.3 hybridomas with 3 L mimotope substituted peptides. See, Table 3.

The subject of assay [2] is BDC-5.10.3 T cell hybridoma. Described as above. As to conditions: hybridomas 3 × 10^5/mL, 3 hrs co-culture with infected insect cells 1 × 10^5/mL. In kind it is cell-based, mouse. How it is done: as §1, §2
A further assay deals with BDC-2.5 T cell hybridoma. The assay is described as above. In kind it is cell-based, mouse. As to conditions: hybridomas 3 × 10^5/mL, 3 hrs co-culture with infected insect cells 1 × 10^5/mL. How it is done: as §1, §2

For “EDKRWSRMDQLAKELTAE [EE18, WE14 extended by 4 amino acids (EDKR)]”, the “IA^g7 binding, result in words” value in the assay with soluble IA^g7 is given as “no effect”. The “Stimulation of T cell clone BDC-2.5 (IFNγ response), result in words” value (shortened to “Stimulation … in words”) in the assay with T cell clone BDC-2.5 is on record as “virtually eliminated”.
Regarding QWEDKRWSRMDQA, the “Stimulation … in words” value in the assay with T cell clone BDC-2.5 is reported as “unable to stimulate”.
As for SRLVLWVRME, the “Stimulation BDC-10.1 (upregulation of CD69)” value in assay [1] is reported as “+ (A positive response (+) indicates >40% of the hybridoma population stained above a background staining of 1% for unstimulated or of the same T cell hybridoma)”. The “Stimulation BDC-5.1.3 (upregulation of CD69)” value in assay [2] was “+ (A positive response (+) indicates >40% of the hybridoma population stained above a background staining of 1% for unstimulated or of the same T cell hybridoma)”.
Turning to SRLHLWVRME, in assay [1], the “Stimulation BDC-10.1 (upregulation of CD69)” value is given as “+ (A positive response (+) indicates >40% of the hybridoma population stained above a background staining of 1% for unstimulated or of the same T cell hybridoma)”. The “Stimulation BDC-5.1.3 (upregulation of CD69)” value in assay [2] is on record as “+ (A positive response (+) indicates >40% of the hybridoma population stained above a background staining of 1% for unstimulated or of the same T cell hybridoma)”.
Turning to “Enz: WE14 after transglutaminase modification (WSRMDQLAKELTAE; also: transglutaminase modification, site not given here)”, the “Stimulation … in words” value in the assay on T cell clone BDC-2.5 is “highly antigenic”.
Take SRLPLWVRME: the “Stimulation BDC-10.1 (upregulation of CD69)” value in assay [1] is on record as “+ (A positive response (+) indicates >40% of the hybridoma population stained above a background staining of 1% for unstimulated or of the same T cell hybridoma)”. Also, the “Stimulation BDC-2.5 (upregulation of CD69)” value in the assay on BDC-2.5 T cell hybridoma is on record as “+ (A positive response (+) indicates >40% of the hybridoma population stained above a background staining of 1% for unstimulated or of the same T cell hybridoma)”. In addition, the “Stimulation BDC-5.1.3 (upregulation of CD69)” value in assay [2] is on record as “+ (A positive response (+) indicates >40% of the hybridoma population stained above a background staining of 1% for unstimulated or of the same T cell hybridoma)”.
As to “WSRMD [WD5, shortest C-terminal truncation of WE14, motif only]”, the “Stimulation … in words” value with T cell clone BDC-2.5 was “decreasing stimulatory activity; also recorded: lacked any activity at all”.
SRFGLWVRME: the “Stimulation BDC-10.1 (upregulation of CD69)” value in assay [1] is “+ (A positive response (+) indicates >40% of the hybridoma population stained above a background staining of 1% for unstimulated or of the same T cell hybridoma)”. Further, in the assay on BDC-2.5 T cell hybridoma, the “Stimulation BDC-2.5 (upregulation of CD69)” value is on record as “+ (A positive response (+) indicates >40% of the hybridoma population stained above a background staining of 1% for unstimulated or of the same T cell hybridoma)”.
Take SRLALWVRME: the “Stimulation BDC-10.1 (upregulation of CD69)” value in assay [1] is recorded as “+ (A positive response (+) indicates >40% of the hybridoma population stained above a background staining of 1% for unstimulated or of the same T cell hybridoma)”. Also, the “Stimulation BDC-2.5 (upregulation of CD69)” value in the assay with BDC-2.5 T cell hybridoma is reported as “+ (A positive response (+) indicates >40% of the hybridoma population stained above a background staining of 1% for unstimulated or of the same T cell hybridoma)”. In addition, in assay [2], the “Stimulation BDC-5.1.3 (upregulation of CD69)” value was “+ (A positive response (+) indicates >40% of the hybridoma population stained above a background staining of 1% for unstimulated or of the same T cell hybridoma)”.
With SRLSLWVRME, the “Stimulation BDC-10.1 (upregulation of CD69)” value in assay [1] was “+ (A positive response (+) indicates >40% of the hybridoma population stained above a background staining of 1% for unstimulated or of the same T cell hybridoma)”. Further, the “Stimulation BDC-2.5 (upregulation of CD69)” value in the assay with BDC-2.5 T cell hybridoma was “+ (A positive response (+) indicates >40% of the hybridoma population stained above a background staining of 1% for unstimulated or of the same T cell hybridoma)”. Besides, the “Stimulation BDC-5.1.3 (upregulation of CD69)” value in assay [2] was “+ (A positive response (+) indicates >40% of the hybridoma population stained above a background staining of 1% for unstimulated or of the same T cell hybridoma)”.
With SRLRLWVRME, in assay [1], the “Stimulation BDC-10.1 (upregulation of CD69)” value is “+ (A positive response (+) indicates >40% of the hybridoma population stained above a background staining of 1% for unstimulated or of the same T cell hybridoma)”. In addition, in the assay with BDC-2.5 T cell hybridoma, the “Stimulation BDC-2.5 (upregulation of CD69)” value is listed as “+ (A positive response (+) indicates >40% of the hybridoma population stained above a background staining of 1% for unstimulated or of the same T cell hybridoma)”. The “Stimulation BDC-5.1.3 (upregulation of CD69)” value in assay [2] is recorded as “+ (A positive response (+) indicates >40% of the hybridoma population stained above a background staining of 1% for unstimulated or of the same T cell hybridoma)”.
With SRLTLWVRME, in assay [1], the “Stimulation BDC-10.1 (upregulation of CD69)” value is listed as “+ (A positive response (+) indicates >40% of the hybridoma population stained above a background staining of 1% for unstimulated or of the same T cell hybridoma)”. Also, the “Stimulation BDC-2.5 (upregulation of CD69)” value in the assay on BDC-2.5 T cell hybridoma is “+ (A positive response (+) indicates >40% of the hybridoma population stained above a background staining of 1% for unstimulated or of the same T cell hybridoma)”. The “Stimulation BDC-5.1.3 (upregulation of CD69)” value in assay [2] is on record as “+ (A positive response (+) indicates >40% of the hybridoma population stained above a background staining of 1% for unstimulated or of the same T cell hybridoma)”.
SRLYLWVRME: the “Stimulation BDC-10.1 (upregulation of CD69)” value in assay [1] was “+ (A positive response (+) indicates >40% of the hybridoma population stained above a background staining of 1% for unstimulated or of the same T cell hybridoma)”. Also, the “Stimulation BDC-5.1.3 (upregulation of CD69)” value in assay [2] was “+ (A positive response (+) indicates >40% of the hybridoma population stained above a background staining of 1% for unstimulated or of the same T cell hybridoma)”.
For the substance “WA8: sequential C-terminal truncation of WE14 (WSRMDQLA)”, the “Stimulation … in words” value in the assay with T cell clone BDC-2.5 is reported as “decreasing stimulatory activity”.
For the substance SRLGLWVRME, the “Stimulation BDC-10.1 (upregulation of CD69)” value in assay [1] is given as “+ (A positive response (+) indicates >40% of the hybridoma population stained above a background staining of 1% for unstimulated or of the same T cell hybridoma)”. Besides, the “Stimulation BDC-2.5 (upregulation of CD69)” value in the assay on BDC-2.5 T cell hybridoma is reported as “+ (A positive response (+) indicates >40% of the hybridoma population stained above a background staining of 1% for unstimulated or of the same T cell hybridoma)”. Moreover, the “Stimulation BDC-5.1.3 (upregulation of CD69)” value in assay [2] is “+ (A positive response (+) indicates >40% of the hybridoma population stained above a background staining of 1% for unstimulated or of the same T cell hybridoma)”.
For the substance SRLCLWVRME, in the assay on BDC-2.5 T cell hybridoma, the “Stimulation BDC-2.5 (upregulation of CD69)” value is given as “+ (A positive response (+) indicates >40% of the hybridoma population stained above a background staining of 1% for unstimulated or of the same T cell hybridoma)”. In assay [2], the “Stimulation BDC-5.1.3 (upregulation of CD69)” value is listed as “+ (A positive response (+) indicates >40% of the hybridoma population stained above a background staining of 1% for unstimulated or of the same T cell hybridoma)”.
Consider SRLMLWVRME, for which the “Stimulation BDC-10.1 (upregulation of CD69)” value in assay [1] was “+ (A positive response (+) indicates >40% of the hybridoma population stained above a background staining of 1% for unstimulated or of the same T cell hybridoma)”. Besides, in assay [2], the “Stimulation BDC-5.1.3 (upregulation of CD69)” value is recorded as “+ (A positive response (+) indicates >40% of the hybridoma population stained above a background staining of 1% for unstimulated or of the same T cell hybridoma)”.
